Results published in patent US9493401B2, “Glutamate derivatives for topical use as immunomodulatory active ingredient” (PIERRE FABRE DERMO-COSMETIQUE, priority 2012, dated 2016).
Where two headings read alike, the source gives them in different places. Values belong to the molecule of their own block, whether it stands above or below them.

Columns and labels:
human CD4+ lymphocytes = assay: Secretion of cytokines by human CD4+ lymphocytes stimulated with SEB (immuno-regulatory activity); type: cell-based; details: Lymphocyte, SEB 300 ng/ml, 24 h
HaCaT keratinocytes = assay: Secretion of IL8 by HaCaT keratinocytes stimulated with TNFα (anti-inflammatory activity); type: cell-based, human; details: TNFα 10 ng/ml, 24 h; FIG. 4; in words
Experimental: The dosage of interleukin 8 is carried out from a sample taken from the supernatant according to the following method: • IL8 is evaluated by ELISA, Duoset IL8 (Ref. DY208E, R&D Systems).

NHEK keratinocytes = assay: Gene expression of inflammatory markers of atopic dermatitis in stimulated NHEK keratinocytes (PCR-Array); type: cell-based, human; details: 24 h, vs stimulated control
Experimental: The primary keratinocytes (NHEK, normal human epidermal keratinocytes) distributed in 24-well plates are preincubated for 1 hour with the active ingredients and then stimulated for 24 hours with a cocktail of 4 agonists giving the possibility of creating in vitro the physio-pathological environment of atopic dermatitis: 100 ng/ml IL4+100 ng/ml IL13+1 μg/ml Poly I:C+5 μg/ml Pam3CSK4: this model gives the possibility of inducing the inflammation mediated by the overexpressed Th2 cytokines in DA (IL4, IL13) and by the bacterial components (mimicked by Pam3CSK4, TLR-2 ligand) and viral components (mimicked by Poly I:C, TLR-3 ligand) of DA. Analysis of the gene expression of the markers of DA is conducted in a PCR-Array with 48 genes and repeated on 3 different donors of NHEK.
For the whole of the markers, the RQ (Relative Quantity) of less than 0.5, at 5 h or 24 h, indicates significant inhibition: • inhibition of the TSLP marker involved in the lymphocyte Th2 polarization and specific of AD; • inhibition of the inflammatory cytokines IL1A, IL8, CSF2, IFNB1, VEGF; • inhibition of the chemokines CCL, CXCL, involved in the recruitment, cutaneous infiltration, and activation of the inflammatory cells (leucocytes, lymphocytes, Th1 and Th2 lymphocytes, monocytes).

[1] = read-out: inhibition of the production of IL-2
[2] = read-out: inhibition of the production of IL-4
[3] = read-out: inhibition of the production of IL-17

melting point: 179.3 °C
SMILES: CCCCCCCCCCCCCCCCOC(=O)CC[C@H](N)C(=O)O [Example 6, 5-(n-hexadecyl)-L-glutamate or 2-amino-5-(hexadecyloxy)-5-oxopentanoic acid]

melting point: 180.5 °C
SMILES: CCCCCCCCCCCCCCCCCCOC(=O)CC[C@H](N)C(=O)O [Example 7, 5-(n-octadecyl)-L-glutamate or 2-amino-5-(octadecyloxy)-5-oxopentanoic acid]

More lines, now with the values behind:

SMILES: CCCCCCCCCOC(=O)CC[C@H](N)C(=O)O [Example 3, 5-(n-nonyl)-L-glutamate or 2-amino-5-(nonyloxy)-5-oxopentanoic acid]
inhibition at 300 µM (human CD4+ lymphocytes; [1]): 63%
inhibition at 300 µM (human CD4+ lymphocytes; [2]): 70%
inhibition at 300 µM (human CD4+ lymphocytes; [3]): 54%
anti-inflammatory activity towards the production of IL-8 (HaCaT keratinocytes): anti-inflammatory activity

SMILES: CCCCCCCCCCCCOC(=O)CC[C@H](N)C(=O)O [Example 4, 5-(n-dodecyl)-L-glutamate or 2-amino-5-(dodecyloxy)-5-oxopentanoic acid]
melting point: 189.9 °C

SMILES: CCCCCCCCCCCCCCOC(=O)CC[C@H](N)C(=O)O [Example 5, 5-(n-tetradecyl)-L-glutamate or 2-amino-5-oxo-5(tetradecyl)pentanoic acid]
melting point: 184.8 °C

SMILES: CC(C)CCCC(C)CCOC(=O)CC[C@H](N)C(=O)O (stereo partly drawn) [Example 8, 5-(3,7-dimethyloctyl)-L-glutamate or 2-amino-5(3,7-dimethyloctyloxy)-5-oxo-pentanoic acid]
inhibition at 300 µM (human CD4+ lymphocytes; [1]): 29%
melting point: 150.8 °C

SMILES: CCCCC(CC)COC(=O)CC[C@H](N)C(=O)O (stereo partly drawn) [Example 12, 5-(2-ethylhexyl)-L-glutamate or 2-amino-5(2-ethylhexyloxy)-5-oxopentanoic acid]
inhibition at 300 µM (human CD4+ lymphocytes; read-out: inhibition of the production of IFNγ): 77%
inhibition at 300 µM (human CD4+ lymphocytes; read-out: inhibition of the production of IL1β): 80%
inhibition at 300 µM (human CD4+ lymphocytes; read-out: inhibition of the production of IL5): 77%
inhibition at 300 µM (human CD4+ lymphocytes; read-out: inhibition of the production of IL6): 44%
inhibition at 300 µM (human CD4+ lymphocytes; read-out: inhibition of the production of IL10): 87%
inhibition at 300 µM (human CD4+ lymphocytes; read-out: inhibition of the production of IL13): 84%
inhibition at 300 µM (human CD4+ lymphocytes; [1]): 43%
inhibition at 300 µM (human CD4+ lymphocytes; [2]): 69%
inhibition at 300 µM (human CD4+ lymphocytes; [3]): 86%
inhibition at 300 µM (human CD4+ lymphocytes; read-out: inhibition of the production of TNFα): 18%
CCL2 (MCP-1) gene expression (NHEK keratinocytes; 100 μM): 0.48 RQ
CCL3 (MIP-1α) gene expression (NHEK keratinocytes; 100 μM): 0.51 RQ
CCL4 (MIP-1β) gene expression (NHEK keratinocytes; 100 μM): 0.14 RQ
CCL5 (RANTES) gene expression (NHEK keratinocytes; 100 μM): 0.42 RQ
CCL20 (MIP-3α) gene expression (NHEK keratinocytes; 100 μM): 0.13 RQ
CSF2 (GMCSF) gene expression (NHEK keratinocytes; 100 μM): 1.55 RQ
CXCL1 (GRO-α) gene expression (NHEK keratinocytes; 100 μM): 0.33 RQ
CXCL2 (MIP-2α) gene expression (NHEK keratinocytes; 100 μM): 0.06 RQ
CXCL9 (Gamma-interferon-induced monokine) gene expression (NHEK keratinocytes; 100 μM): 0.20 RQ
CXCL10 (IP-10) gene expression (NHEK keratinocytes; 100 μM): 0.18 RQ
CXCL11 (I-TAC) gene expression (NHEK keratinocytes; 100 μM): 0.14 RQ
IFNB1 (Interferon beta 1) gene expression (NHEK keratinocytes; 100 μM): 0.19 RQ
IL1A (Interleukin 1, alpha) gene expression (NHEK keratinocytes; 100 μM): 0.53 RQ
IL8 (Interleukin 8) gene expression (NHEK keratinocytes; 100 μM): 0.29 RQ
TSLP (Thymic stromal lymphopoietin) gene expression (NHEK keratinocytes; 100 μM): 0.20 RQ
VEGFC (Vascular endothelial growth factor C) gene expression (NHEK keratinocytes; 100 μM): 0.20 RQ
CCL3 (MIP-1α) gene expression (NHEK keratinocytes; 300 μM): 0.06 RQ
CCL4 (MIP-1β) gene expression (NHEK keratinocytes; 300 μM): 0.02 RQ
CCL5 (RANTES) gene expression (NHEK keratinocytes; 300 μM): 0.20 RQ
CCL20 (MIP-3α) gene expression (NHEK keratinocytes; 300 μM): 0.13 RQ
CSF2 (GMCSF) gene expression (NHEK keratinocytes; 300 μM): 0.33 RQ
CXCL1 (GRO-α) gene expression (NHEK keratinocytes; 300 μM): 0.36 RQ
CXCL2 (MIP-2α) gene expression (NHEK keratinocytes; 300 μM): 0.32 RQ
CXCL9 (Gamma-interferon-induced monokine) gene expression (NHEK keratinocytes; 300 μM): 0.29 RQ
CXCL10 (IP-10) gene expression (NHEK keratinocytes; 300 μM): 0.06 RQ
CXCL11 (I-TAC) gene expression (NHEK keratinocytes; 300 μM): 0.15 RQ
IFNB1 (Interferon beta 1) gene expression (NHEK keratinocytes; 300 μM): 0.26 RQ
IL1A (Interleukin 1, alpha) gene expression (NHEK keratinocytes; 300 μM): 0.53 RQ
IL8 (Interleukin 8) gene expression (NHEK keratinocytes; 300 μM): 0.18 RQ
TSLP (Thymic stromal lymphopoietin) gene expression (NHEK keratinocytes; 300 μM): 0.54 RQ
VEGFC (Vascular endothelial growth factor C) gene expression (NHEK keratinocytes; 300 μM): 0.50 RQ
melting point: 157.9 °C

SMILES: N[C@@H](CCC(=O)O)C(=O)O [glutamic acid, reference compound]
anti-inflammatory activity towards the production of IL-8 (HaCaT keratinocytes): not again found
